US6521665B1, “Method of treating insulin resistance” (priority 2001, dated 2003)
Like-named read-outs stand apart in the source and are kept apart here.

Columns and labels:
[1] = system: streptozotocin-induced rats; details: for Mean plasma FFA / Mean plasma insulin / Mean serum glucose: experimental rats, 5 mg per kg s.c. daily for 7 days
Experimental: Animals. Male albino Wistar rats 8-10 weeks of age 200-250 grams of body weight were used. The rats were housed at the temperature of 18±21° C. on a 12 hour light-dark cycle. Rats were fed on a stock laboratory diet (59% carbohydrates; 17% protein; 3% fat; 21% minerals, water, cellulose) and allowed water ad libitum. The streptozotocin (Sigma, St. Louis, Mo., USA) solved in citrate buffer (0.05M, pH 5.5) was injected into tail vein of male albino Wistar rats in a dose of 35 mg per kg of animal body weight to induce decompensated insulin resistance. The rats with levels of glucose more than 14.0 mmol/l were used in the experiment one week after the streptozotocin injection.
(§1) Assays. Plasma free fatty acids levels were determined by enzymatic method with a commercially available kit (Waho Chemicals Gmbh, Neuss, Germany) with Multistat 3 centrifugal analyzer (Instrumentation Laboratories, Lexington, USA).
(§2) Serum glucose concentrations were determined by the glucose oxidase method with a kit (Lachema, Slov.) with glucose analyzer (Beckman, Fullerton, Calif., USA).
(§3) Plasma insulin concentrations were determined by a double-antibody radioimmunoassay kit (Kabi Pharmacia Diagnostics, Uppsala, Sweden) using a rat insulin standard (Novo Research Institute, Bagsvard, Denmark).
Procedure. Streptozotocin-induced rats were assigned to two groups: a control rats (six rats) and experimental rats (fifteen rats). Experimental rats received daily injection (subcutaneously, 0.5 ml at 09.00 h) of water solution of succinic acid disodium salt hexahydrate in a dose of 5 mg per kg of body weight for period of 7 days.
Plasma free fatty acid levels (FFA), plasma Insulin levels and serum glucose levels were measured in rats by tail clipping method at zero day (before treatment), at third, fifth and seventh days (treatment period), and at tenth, fifteen, twentieth, twenty fifth and thirtieth days (after-treatment period).

[2] = system: healthy rats; details: no changes during thirty days of the experiment
Experimental: as §1, §2, §3

[3] = system: pancreatic islets; details: MacDonald, Fahien, Diabetes 37(7): 997-999 (1988); cited from earlier work
[4] = system: non-insulin dependent diabetic humans; details: for Mean plasma FFA / Mean plasma High Density Lipoprotein cholesterol (HDL) / Mean plasma Low Density Lipoprotein cholesterol (LDL) / Mean plasma Triglycerides / Mean plasma insulin / Mean serum glucose: NIDDM humans, orally 200 mg to 400 mg per day for 3 to 7 days
Description: Patients. Twelve non-insulin dependent diabetic humans were studied. Non-insulin Dependent Diabetes Mellitus (NIDDM) was diagnosed in the humans according to the World Health Organisation criteria and had been presented for minimum 5 years. The NIDDM humans were metabolically stable and had glucose levels more than 12.8 mmol/l. Six patients were taking oral sulphonylurea hypoglicemic drug glibenclamide (rec. INN). None of the humans were undergoing hypolipidemic therapy. The humans had no additive metabolic disorders.
Assays. Assays were used as described in the example 1 of the invention. Plasma insulin concentrations were determined by a double-antibody radioimmunoassay kit (Kabi Pharmacia Diagnostics, Uppsala, Sweden).
Procedure. Pharmaceutical grade succinic acid in a unit dosage form of 100 mg per gelatin capsule was used. All patients received succinic acid orally in daily dose of 200 mg to 400 mg per day for period of 3 to 7 days.
Plasma free fatty acid levels, insulin levels and serum glucose levels, plasma high density lipoprotein cholesterol (HDL-cholesterol), low density lipoprotein cholesterol (LDL-cholesterol) and triglycerides were measured in humans at zero day (before treatment ), at third and fifth days (treatment period), and at tenth, fifteen twentieth, twenty fifth thirtieth and fortieth days (after-treatment period).

[5] = day 10 (after-treatment period)
[6] = day 15 (after-treatment period)
[7] = day 20 (after-treatment period)
[8] = day 25 (after-treatment period)
[9] = day 30 (after-treatment period)
[10] = day 10 (after treatment period)
[11] = day 15 (after treatment period)
[12] = day 20 (after treatment period)
[13] = day 25 (after treatment period)
[14] = day 30 (after treatment period)
[15] = day 40 (after treatment period)
[16] = day 40 (after-treatment period)

SMILES: O.O.O.O.O.O.O=C([O-])CCC(=O)[O-].[Na+].[Na+] [succinic acid disodium salt hexahydrate]
- Mean plasma FFA ([1]; day 0 (before treatment)): 0.35 ± 0.03 mmol/L
- Mean plasma insulin ([1]; day 0 (before treatment)): 11.0 ± 0.7 ng/mL
- Mean serum glucose ([1]; day 0 (before treatment)): 15.7 ± 2.6 mmol/L
- Mean plasma FFA ([1]; day 3 (treatment period)): 0.32 ± 0.04 mmol/L
- Mean plasma insulin ([1]; day 3 (treatment period)): 10.2 ± 1.1 ng/mL
- Mean serum glucose ([1]; day 3 (treatment period)): 15.8 ± 3.1 mmol/L
- Mean plasma FFA ([1]; day 5 (treatment period)): 0.25 ± 0.06 mmol/L
- Mean plasma insulin ([1]; day 5 (treatment period)): 7.4 ± 0.8 ng/mL
- Mean serum glucose ([1]; day 5 (treatment period)): 13.0 ± 2.4 mmol/L
- Mean plasma FFA ([1]; day 7 (treatment period)): 0.18 ± 0.05 mmol/L
- Mean plasma insulin ([1]; day 7 (treatment period)): 4.2 ± 0.7 ng/mL
- Mean serum glucose ([1]; day 7 (treatment period)): 10.0 ± 1.2 mmol/L
- Mean plasma FFA [1, 5]: 0.20 ± 0.06 mmol/L
- Mean plasma insulin [1, 5]: 3.1 ± 0.8 ng/mL
- Mean serum glucose [1, 5]: 10.1 ± 2.0 mmol/L
- Mean plasma FFA [1, 6]: 0.15 ± 0.03 mmol/L
- Mean plasma insulin [1, 6]: 2.4 ± 0.4 ng/mL
- Mean serum glucose [1, 6]: 8.1 ± 1.1 mmol/L
- Mean plasma FFA [1, 7]: 0.10 ± 0.05 mmol/L
- Mean plasma insulin [1, 7]: 2.1 ± 0.4 ng/mL
- Mean serum glucose [1, 7]: 6.6 ± 0.8 mmol/L
- Mean plasma FFA [1, 8]: 0.11 ± 0.04 mmol/L
- Mean plasma insulin [1, 8]: 2.0 ± 0.3 ng/mL
- Mean serum glucose [1, 8]: 5.7 ± 0.5 mmol/L
- Mean plasma FFA [1, 9]: 0.13 ± 0.04 mmol/L
- Mean plasma insulin [1, 9]: 2.1 ± 0.3 ng/mL
- Mean serum glucose [1, 9]: 5.4 ± 0.7 mmol/L
- insulin sensitivity ([1]; insulin resistant rats in comparison with control insulin resistant rats, maximal efficacy in the after-treatment period): significant improving in insulin sensitivity
- plasma free fatty acid levels [2]: 0.08 ± 0.03 mmol/L
- plasma insulin levels [2]: 3.4 ± 0.6 ng/mL
- serum glucose [2]: 4.8 ± 0.4 mmol/L

SMILES: O=C(O)CCC(=O)O [succinic acid]
- insulin release [3]: did not stimulate insulin release
- Mean plasma FFA ([4]; day 0 (before treatment)): 0.240 ± 0.044 mmol/L
- Mean plasma High Density Lipoprotein cholesterol (HDL) ([4]; day 0 (before treatment)): 0.6 ± 0.4 mmol/L
- Mean plasma Low Density Lipoprotein cholesterol (LDL) ([4]; day 0 (before treatment)): 4.8 ± 0.3 mmol/L
- Mean plasma Triglycerides ([4]; day 0 (before treatment)): 2.7 ± 0.3 mmol/L
- Mean plasma insulin ([4]; day 0 (before treatment)): 140 ± 23 pmol/L
- Mean serum glucose ([4]; day 0 (before treatment)): 14.8 ± 1.4 mmol/L
- Mean plasma FFA ([4]; day 3 (treatment period)): 0.250 ± 0.071 mmol/L
- Mean plasma High Density Lipoprotein cholesterol (HDL) ([4]; day 3 (treatment period)): 0.7 ± 0.2 mmol/L
- Mean plasma Low Density Lipoprotein cholesterol (LDL) ([4]; day 3 (treatment period)): 4.9 ± 0.4 mmol/L
- Mean plasma Triglycerides ([4]; day 3 (treatment period)): 2.8 ± 0.6 mmol/L
- Mean serum glucose ([4]; day 3 (treatment period)): 14.5 ± 1.4 mmol/L
- Mean plasma FFA ([4]; day 5 (treatment period)): 0.195 ± 0.064 mmol/L
- Mean plasma High Density Lipoprotein cholesterol (HDL) ([4]; day 5 (treatment period)): 0.8 ± 0.2 mmol/L
- Mean plasma Low Density Lipoprotein cholesterol (LDL) ([4]; day 5 (treatment period)): 4.7 ± 0.2 mmol/L
- Mean plasma Triglycerides ([4]; day 5 (treatment period)): 2.7 ± 0.3 mmol/L
- Mean serum glucose ([4]; day 5 (treatment period)): 14.9 ± 1.5 mmol/L
- Mean plasma High Density Lipoprotein cholesterol (HDL) [4, 10]: 1.2 ± 0.4 mmol/L
- Mean plasma Low Density Lipoprotein cholesterol (LDL) [4, 10]: 4.3 ± 0.6 mmol/L
- Mean plasma Triglycerides [4, 10]: 2.5 ± 0.3 mmol/L
- Mean plasma FFA [4, 5]: 0.184 ± 0.035 mmol/L
- Mean plasma insulin [4, 5]: 134 ± 27 pmol/L
- Mean serum glucose [4, 5]: 13.0 ± 2.0 mmol/L
- Mean plasma High Density Lipoprotein cholesterol (HDL) [4, 11]: 1.2 ± 0.3 mmol/L
- Mean plasma Low Density Lipoprotein cholesterol (LDL) [4, 11]: 4.0 ± 0.3 mmol/L
- Mean plasma Triglycerides [4, 11]: 2.4 ± 0.4 mmol/L
- Mean plasma FFA [4, 6]: 0.157 ± 0.032 mmol/L
- Mean serum glucose [4, 6]: 13.1 ± 0.8 mmol/L
- Mean plasma High Density Lipoprotein cholesterol (HDL) [4, 12]: 1.2 ± 0.4 mmol/L
- Mean plasma Low Density Lipoprotein cholesterol (LDL) [4, 12]: 3.5 ± 0.4 mmol/L
- Mean plasma Triglycerides [4, 12]: 1.8 ± 0.4 mmol/L
- Mean plasma FFA [4, 7]: 0.161 ± 0.034 mmol/L
- Mean plasma insulin [4, 7]: 124 ± 17 pmol/L
- Mean serum glucose [4, 7]: 11.0 ± 1.0 mmol/L
- Mean plasma High Density Lipoprotein cholesterol (HDL) [4, 13]: 1.3 ± 0.2 mmol/L
- Mean plasma Low Density Lipoprotein cholesterol (LDL) [4, 13]: 3.4 ± 0.3 mmol/L
- Mean plasma Triglycerides [4, 13]: 1.3 ± 0.2 mmol/L
- Mean plasma FFA [4, 8]: 0.113 ± 0.046 mmol/L
- Mean serum glucose [4, 8]: 9.4 ± 1.3 mmol/L
- Mean plasma High Density Lipoprotein cholesterol (HDL) [4, 14]: 1.5 ± 0.2 mmol/L
- Mean plasma Low Density Lipoprotein cholesterol (LDL) [4, 14]: 3.4 ± 0.2 mmol/L
- Mean plasma Triglycerides [4, 14]: 1.1 ± 0.1 mmol/L
- Mean plasma FFA [4, 9]: 0.086 ± 0.035 mmol/L
- Mean plasma insulin [4, 9]: 118 ± 21 pmol/L
- Mean serum glucose [4, 9]: 7.1 ± 0.6 mmol/L
- Mean plasma High Density Lipoprotein cholesterol (HDL) [4, 15]: 1.3 ± 0.2 mmol/L
- Mean plasma Low Density Lipoprotein cholesterol (LDL) [4, 15]: 3.5 ± 0.4 mmol/L
- Mean plasma Triglycerides [4, 15]: 1.4 ± 0.2 mmol/L
- Mean plasma FFA [4, 16]: 0.100 ± 0.022 mmol/L
- Mean plasma insulin [4, 16]: 112 ± 14 pmol/L
- Mean serum glucose [4, 16]: 5.8 ± 1.1 mmol/L
- change of plasma triglycerides, LDL cholesterol and HDL cholesterol ([4]; non-insulin dependent diabetic humans, especially in the after-treatment period): reducing plasma triglycerides and low density lipoprotein cholesterol, and increasing plasma high density lipoprotein cholesterol
- insulin sensitivity ([4]; non-insulin dependent diabetic humans, maximal efficacy in the after-treatment period): improving in insulin sensitivity
